Test results: patent US10894817B2, “Fatty acid modified urocortin-2 analogs for the treatment of diabetes and chronic kidney disease” (priority 2016, dated 2021)
pEC50: −log10 of the molar value. Starred links: 1 amine or outer side, 2 acyl side, 3 side chain; linkers in the order of their positions; H or OH if unused. Non-standard residues stand in square brackets, D forms with d. Residues, ends and D or L forms follow the SMILES beside them. Groups on a side chain read outwards from the residue. *: point of attachment. C20 diacid = O=C(O)CCCCCCCCCCCCCCCCCCC(=O)*; γGlu = O=C(O)[C@H](CCC(=O)[*:2])N[*:1]; Palmitoyl = CCCCCCCCCCCCCCCC(=O)*; NMeI = CC[C@H](C)[C@H](NC)C(=O)O; AEEA = NCCOCCOCC(=O)O

Biological target: T1, human CRHR2b (Homo sapiens, UniProt Q13324)
T1 construct: expressed in transfected cells; host or cells: Chinese Hamster Ovary (CHO) cells, transient transfection
T1 sequence (Q13324 1-438 isoform Q13324-2): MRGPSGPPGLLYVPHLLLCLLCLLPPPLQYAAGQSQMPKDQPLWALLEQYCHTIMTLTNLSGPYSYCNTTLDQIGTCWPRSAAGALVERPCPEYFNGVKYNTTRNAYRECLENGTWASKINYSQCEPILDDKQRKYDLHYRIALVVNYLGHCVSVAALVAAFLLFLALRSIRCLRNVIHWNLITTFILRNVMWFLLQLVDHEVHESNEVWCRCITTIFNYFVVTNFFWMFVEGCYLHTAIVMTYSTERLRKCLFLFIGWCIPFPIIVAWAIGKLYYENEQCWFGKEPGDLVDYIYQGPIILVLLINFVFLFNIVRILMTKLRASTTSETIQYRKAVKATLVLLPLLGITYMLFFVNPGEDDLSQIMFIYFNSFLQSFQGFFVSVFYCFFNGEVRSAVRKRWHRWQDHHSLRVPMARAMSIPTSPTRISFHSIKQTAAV
Experiment: human CRHR2b cell-based cAMP assay
Conditions: cAMP assay; Table 26, compounds of Example 9; read-out: hCRHR2b Average EC50
How it was run: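 ED50 values are means ± SEM over several runs, curve-fitted from cAMP in pmol, calibrated against unlabeled-cAMP standards. Detection was HTRF competition, ratio 665/620 nm, after 30 min agonist exposure at 37 °C.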

| pEC50 | Compound |
| --- | --- |
| 8.92 | CCCCCCCCCCCCCCCC(=O)N[C@@H](CCC(=O)NCCCC[C@H](NC(=O)[C@@H](NC(=O)[C@H](CCC(N)=O)NC(=O)[C@H](CC(C)C)NC(=O)[C@H](CC(C)C)NC(=O)CNC(=O)[C@@H](NC(=O)[C@@H]1CCCN1C(=O)[C@@H](NC(=O)[C@H](CC(=O)O)NC(=O)[C@H](CC(C)C)NC(=O)[C@H](CO)NC(=O)[C@H](CC(C)C)NC(=O)[C@@H](NC(=O)[C@@H](N)[C@@H](C)CC)C(C)C)C(C)C)[C@@H](C)CC)[C@@H](C)CC)C(=O)N[C@@H](CC(C)C)C(=O)N[C@@H](CCC(=O)O)C(=O)N[C@@H](CCC(N)=O)C(=O)N[C@@H](CCC(=O)O)C(=O)N[C@@H](CCCCN)C(=O)N[C@@H](CCC(N)=O)C(=O)N[C@@H](CCC(=O)O)C(=O)N[C@@H](CCCCN)C(=O)N[C@@H](CCC(=O)O)C(=O)N[C@@H](CCCCN)C(=O)N[C@@H](CCC(N)=O)C(=O)N[C@@H](CCC(N)=O)C(=O)N[C@@H](C)C(=O)N[C@H](C(=O)N[C@H](C(=O)N[C@@H](CC(N)=O)C(=O)N[C@@H](C)C(=O)N[C@@H](CCCNC(=N)N)C(=O)N[C@H](C(=O)N[C@@H](CC(C)C)C(=O)N[C@@H](C)C(=O)N[C@@H](CCCNC(=N)N)C(=O)N[C@H](C(N)=O)C(C)C)[C@@H](C)CC)[C@@H](C)O)[C@@H](C)O)C(=O)O [Compound 22] (H-IVLSLDVPIGLLQIK([γGlu-Palmitoyl])LEQEKQEKEKQQATTNARILARV-NH2) |
| 7.57 | CCCCCCCCCCCCCCCC(=O)N[C@@H](CCC(=O)NCCCC[C@H](NC(=O)[C@@H](NC(=O)[C@H](C)NC(=O)[C@H](CCC(N)=O)NC(=O)[C@H](CCC(N)=O)NC(=O)[C@H](CCCCN)NC(=O)[C@H](CCC(=O)O)NC(=O)[C@H](CCCCN)NC(=O)[C@H](CCC(=O)O)NC(=O)[C@H](CCC(N)=O)NC(=O)[C@H](CCCCN)NC(=O)[C@H](CCC(=O)O)NC(=O)[C@H](CCC(N)=O)NC(=O)[C@H](CCC(=O)O)NC(=O)[C@H](CC(C)C)NC(=O)[C@H](CC(C)C)NC(=O)[C@@H](NC(=O)[C@H](CCC(N)=O)NC(=O)[C@H](CC(C)C)NC(=O)[C@H](CC(C)C)NC(=O)CNC(=O)[C@@H](NC(=O)[C@@H]1CCCN1C(=O)[C@@H](NC(=O)[C@H](CC(=O)O)NC(=O)[C@H](CC(C)C)NC(=O)[C@H](CO)NC(=O)[C@H](CC(C)C)NC(=O)[C@@H](NC(=O)[C@@H](N)[C@@H](C)CC)C(C)C)C(C)C)[C@@H](C)CC)[C@@H](C)CC)[C@@H](C)O)C(=O)N[C@@H](CC(N)=O)C(=O)N[C@@H](C)C(=O)N[C@@H](CCCNC(=N)N)C(=O)N[C@H](C(=O)N[C@@H](CC(C)C)C(=O)N[C@@H](C)C(=O)N[C@@H](CCCNC(=N)N)C(=O)N[C@H](C(N)=O)C(C)C)[C@@H](C)CC)C(=O)O [Compound 39] (H-IVLSLDVPIGLLQILLEQEKQEKEKQQATK([γGlu-Palmitoyl])NARILARV-NH2) |
| 8.79 | CC[C@H](C)[C@H](NC)C(=O)N[C@H](C(=O)N[C@@H](CC(C)C)C(=O)N[C@@H](CO)C(=O)N[C@@H](CC(C)C)C(=O)N[C@@H](CC(=O)O)C(=O)N[C@H](C(=O)N1CCC[C@H]1C(=O)N[C@H](C(=O)NCC(=O)N[C@@H](CC(C)C)C(=O)N[C@@H](CC(C)C)C(=O)N[C@@H](CCC(N)=O)C(=O)N[C@H](C(=O)N[C@@H](CC(C)C)C(=O)N[C@@H](CC(C)C)C(=O)N[C@@H](CCC(=O)O)C(=O)N[C@@H](CCC(N)=O)C(=O)N[C@@H](CCC(=O)O)C(=O)N[C@@H](CCCCN)C(=O)N[C@@H](CCC(N)=O)C(=O)N[C@@H](CCC(=O)O)C(=O)N[C@@H](CCCCN)C(=O)N[C@@H](CCC(=O)O)C(=O)N[C@@H](CCCCN)C(=O)N[C@@H](CCC(N)=O)C(=O)N[C@@H](CCC(N)=O)C(=O)N[C@@H](C)C(=O)N[C@@H](CCCCNC(=O)CC[C@H](NC(=O)CC[C@H](NC(=O)CC[C@H](NC(=O)CC[C@H](NC(=O)CCCCCCCCCCCCCCCCCCC(=O)O)C(=O)O)C(=O)O)C(=O)O)C(=O)O)C(=O)N[C@H](C(=O)N[C@@H](CC(N)=O)C(=O)N[C@@H](C)C(=O)N[C@@H](CCC(N)=O)C(=O)N[C@H](C(=O)N[C@@H](CC(C)C)C(=O)N[C@@H](C)C(=O)N[C@@H](CCC(N)=O)C(=O)N[C@H](C(N)=O)C(C)C)[C@@H](C)CC)[C@@H](C)O)[C@@H](C)CC)[C@@H](C)CC)C(C)C)C(C)C [Compound 64] (H-[NMeI]VLSLDVPIGLLQILLEQEKQEKEKQQAK([γGlu-γGlu-γGlu-γGlu-C20 diacid])TNAQILAQV-NH2) |
| 8.49 | CCCCCCCCCCCCCCCC(=O)N[C@@H](CCC(=O)N[C@@H](CCC(=O)NCCCC[C@H](NC(=O)[C@H](CCC(=O)O)NC(=O)[C@H](CCCCN)NC(=O)[C@H](CCC(=O)O)NC(=O)[C@H](CCC(N)=O)NC(=O)[C@H](CCCCN)NC(=O)[C@H](CCC(=O)O)NC(=O)[C@H](CCC(N)=O)NC(=O)[C@H](CCC(=O)O)NC(=O)[C@H](CC(C)C)NC(=O)[C@H](CC(C)C)NC(=O)[C@@H](NC(=O)[C@H](CCC(N)=O)NC(=O)[C@H](CC(C)C)NC(=O)[C@H](CC(C)C)NC(=O)CNC(=O)[C@@H](NC(=O)[C@@H]1CCCN1C(=O)[C@@H](NC(=O)[C@H](CC(=O)O)NC(=O)[C@H](CC(C)C)NC(=O)[C@H](CO)NC(=O)[C@H](CC(C)C)NC(=O)[C@@H](NC(=O)[C@@H](N)[C@@H](C)CC)C(C)C)C(C)C)[C@@H](C)CC)[C@@H](C)CC)C(=O)N[C@@H](CCC(N)=O)C(=O)N[C@@H](CCC(N)=O)C(=O)N[C@@H](C)C(=O)N[C@H](C(=O)N[C@H](C(=O)N[C@@H](CC(N)=O)C(=O)N[C@@H](C)C(=O)N[C@@H](CCCNC(=N)N)C(=O)N[C@H](C(=O)N[C@@H](CC(C)C)C(=O)N[C@@H](C)C(=O)N[C@@H](CCCNC(=N)N)C(=O)N[C@H](C(N)=O)C(C)C)[C@@H](C)CC)[C@@H](C)O)[C@@H](C)O)C(=O)O)C(=O)O [Compound 31] (H-IVLSLDVPIGLLQILLEQEKQEKEK([γGlu-γGlu-Palmitoyl])QQATTNARILARV-NH2) |
| 8.89 | CC[C@H](C)[C@H](NC)C(=O)N[C@H](C(=O)N[C@@H](CC(C)C)C(=O)N[C@@H](CO)C(=O)N[C@@H](CC(C)C)C(=O)N[C@@H](CC(=O)O)C(=O)N[C@H](C(=O)N1CCC[C@H]1C(=O)N[C@H](C(=O)NCC(=O)N[C@@H](CC(C)C)C(=O)N[C@@H](CC(C)C)C(=O)N[C@@H](CCC(N)=O)C(=O)N[C@H](C(=O)N[C@@H](CC(C)C)C(=O)N[C@@H](CC(C)C)C(=O)N[C@@H](CCC(=O)O)C(=O)N[C@@H](CCC(N)=O)C(=O)N[C@@H](CCC(=O)O)C(=O)N[C@@H](CCCCN)C(=O)N[C@@H](CCC(N)=O)C(=O)N[C@@H](CCC(=O)O)C(=O)N[C@@H](CCCCN)C(=O)N[C@@H](CCC(=O)O)C(=O)N[C@@H](CCCCN)C(=O)N[C@@H](CCC(N)=O)C(=O)N[C@@H](CCC(N)=O)C(=O)N[C@@H](C)C(=O)N[C@@H](CCCCNC(=O)CC[C@H](NC(=O)CC[C@H](NC(=O)COCCOCCNC(=O)CC[C@H](NC(=O)CC[C@H](NC(=O)CCCCCCCCCCCCCCCCCCC(=O)O)C(=O)O)C(=O)O)C(=O)O)C(=O)O)C(=O)N[C@H](C(=O)N[C@@H](CC(N)=O)C(=O)N[C@@H](C)C(=O)N[C@@H](CCC(N)=O)C(=O)N[C@H](C(=O)N[C@@H](CC(C)C)C(=O)N[C@@H](C)C(=O)N[C@@H](CCC(N)=O)C(=O)N[C@H](C(N)=O)C(C)C)[C@@H](C)CC)[C@@H](C)O)[C@@H](C)CC)[C@@H](C)CC)C(C)C)C(C)C [Compound 63] (H-[NMeI]VLSLDVPIGLLQILLEQEKQEKEKQQAK([γGlu-γGlu-AEEA-γGlu-γGlu-C20 diacid])TNAQILAQV-NH2) |
| 8.34 | CCCCCCCCCCCCCCCC(=O)N[C@@H](CCC(=O)N[C@@H](CCC(=O)NCCCC[C@H](NC(=O)[C@H](CCCCN)NC(=O)[C@H](CCC(=O)O)NC(=O)[C@H](CCCCN)NC(=O)[C@H](CCC(=O)O)NC(=O)[C@H](CCC(N)=O)NC(=O)[C@H](CCCCN)NC(=O)[C@H](CCC(=O)O)NC(=O)[C@H](CCC(N)=O)NC(=O)[C@H](CCC(=O)O)NC(=O)[C@H](CC(C)C)NC(=O)[C@H](CC(C)C)NC(=O)[C@@H](NC(=O)[C@H](CCC(N)=O)NC(=O)[C@H](CC(C)C)NC(=O)[C@H](CC(C)C)NC(=O)CNC(=O)[C@@H](NC(=O)[C@@H]1CCCN1C(=O)[C@@H](NC(=O)[C@H](CC(=O)O)NC(=O)[C@H](CC(C)C)NC(=O)[C@H](CO)NC(=O)[C@H](CC(C)C)NC(=O)[C@@H](NC(=O)[C@@H](N)[C@@H](C)CC)C(C)C)C(C)C)[C@@H](C)CC)[C@@H](C)CC)C(=O)N[C@@H](CCC(N)=O)C(=O)N[C@@H](C)C(=O)N[C@H](C(=O)N[C@H](C(=O)N[C@@H](CC(N)=O)C(=O)N[C@@H](C)C(=O)N[C@@H](CCCNC(=N)N)C(=O)N[C@H](C(=O)N[C@@H](CC(C)C)C(=O)N[C@@H](C)C(=O)N[C@@H](CCCNC(=N)N)C(=O)N[C@H](C(N)=O)C(C)C)[C@@H](C)CC)[C@@H](C)O)[C@@H](C)O)C(=O)O)C(=O)O [Compound 34] (H-IVLSLDVPIGLLQILLEQEKQEKEKK([γGlu-γGlu-Palmitoyl])QATTNARILARV-NH2) |
| 8.93 | IVLSLDVPIGLLQILLEQEKQEKEKQQAK*ENAQILAQV-NH2 [Compound 56, K* at position 29 bonded with ([2-(2-Amino-ethoxy)-ethoxy]-acetyl)2-γE-CO—(CH2)16—COOH; C-terminal primary amide] |
